Consider five molecules from patent US20110067123A1, “MAO-B ELEVATION AS AN EARLY PARKINSON'S DISEASE BIOMARKER” (priority 2008, published 2011).

The test system of one data set is mesencephalic cultures. Nature of the data set: Extracellular H2O2 in medium of dox-induced mesencephalic cultures (Amplex Red). Type of data set: cell-based, mouse. The settings on record: 10 μM deprenyl, 30 μM EUK189 or 500 nM apocynin, FIG. 4. On the procedure: Primary mixed cultures were prepared from the midbrain of 14-day-old mice embryos from MAO-B transgenics and WT controls. Tissue was digested in Neurobasal medium containing 30 U/ml papain and 20 μg/ml DNase at 37° C. for 30 min and mechanically triturated. Dissociated cells were centrifuged at 500×g, resuspended in growth medium (Neurobasal medium supplemented with 10% FBS, 2 mM […], […] supplement without antioxidants, 50 U/ml penicillin, 50 U/ml streptomycin and 50 ng/ml GDNF [57]), and plated on poly-d-lysine-coated 8 well chamber slides (BD-Biocoat) at a density of 10^5 cells per ml. Mixed cultures were grown at 37° C. for 3-5 days before induction with 40 μg/ml doxycycline for 12 hours as per. […] H2O2 in the medium was assayed by Amplex Red per the manufacturer's instructions. Dopaminergic and microglial cell counts were performed following fixation of the cultured cells for 15 min with 4% formaldehyde following by T11^+ (Chemicon) or Iba1^+ (WAKO USA, Richmond, Va.) immunostaining or via uptake of ASP^+ (4-(4-(dimethylamino)styryl)-N-methylpyridinium iodide) (Invitrogen), a fluorescent analogue of dopamine. 10 μM ASP^+ was loaded on to the uninduced or induced cultures in the presence of 20 μM of desipramine to inhibit the norepinephrine transporter which would also take up the dye. ASP^+ fluorescence (red) was visualized in the T11^+ cells after immunostaining with anti-T11 antibody and Alexa fluor 488 conjugated secondary antibody. Averages of manual double blind T11^+ or fluorescent counts of three wells of culture with the same treatment were collected; counts were performed in triplicate.

The test system of another data set is dopaminergic SN neurons. Nature of the data set: Stereological TH+ SN cell counts in inducible astrocytic MAO-B transgenic mice. As to conditions: dox-induced transgenic mice; co-treatment i.p. 10-30 mg/kg/day for two weeks; FIG. 3A. It counts as in vivo, mouse.
The test system of data set [1] is ST dopaminergic synaptosomes. The data set is described as follows: H2O2 (DCF fluorescence) in isolated ST dopaminergic synaptosomes. Type of data set: in vivo, mouse. The settings on record: for elevation of H2O2 levels in ST dopaminergic synaptosomes: dox-induced animals co-treated, DCF fluorescence, FIG. 5C. On the procedure:
(§1) Dopaminergic and non-dopaminergic striatal synaptosomes were isolated using a modified immuno-magnetic protocol. Briefly, synaptosomes were prepared from dissected striatal tissue. Dopaminergic synaptosomes were isolated using magnetic beads conjugated to anti-rabbit IgG (Miltenyi Biotech) after capturing them using a rabbit anti-DAT antibody (Chemicon). Under a magnetic field, bead-bound synaptosomes were passed through a column and washed; flow-through in the presence of the magnetic field yielded a fraction enriched in non-dopaminergic striatal synaptosomes. Elution performed in the absence of the magnetic field yielded fractions enriched in dopaminergic striatal synaptosomes. Equal quantities of various fractions of the synaptosomes isolated using DAT antibody including the starting material or control, the unbound fraction, the flow-through, the wash and the eluate were subjected to western analysis to assess relative dopaminergic versus non-dopaminergic synaptosomal purification. Western blots were performed using antibodies against TH (Chemicon 1:500), GABA (Chemicon, 1:1000) or SNAP-25 as a synaptic protein normalization control (Chemicon, 1:1000). Band densities were quantified using a Chemimager (Alpha Innotech, San Leandro, Calif.). Approximately 94% synaptosomes in the eluate were dopaminergic according to densitometric evaluation of the western blot.
Hydrogen peroxide levels were measured in the striatal dopaminergic and nondopaminergic synaptosomes prepared as above from various groups of mice. Mice were injected in the tail vein with ˜200 μl of DCFDA (Calbiochem) which was freshly diluted 100× with PBS from a stock of 100 mg/ml in DMSO as modified from Andrews et. al.. […] Hydrogen peroxide in the synaptosomes with or without 1 mg/ml catalase for 30 min after preparation was visualized as DCF fluorescence at 488 nm excitation and 512 nm emission in a Spectramax Gemini fluorescence plate reader. The relative fluorescence was normalized to synaptosomal protein which was quantified using the Bradford reagent, Bio-Rad.

The next data set relates to mitochondrial complex I. The data set is described as follows: Mitochondrial complex I activity in isolated ST dopaminergic synaptosomes. The settings on record: dox-induced animals co-treated. Type of data set: in vivo, mouse. On the procedure:
as §1, with “blot. […]” for “blot.”

The test system of a further data set is SN dopaminergic neurons. The data set is described as follows: Mitochondrial superoxide in vivo (Mitosox Red) in SN dopaminergic neurons. Also on record: species or system mouse. The settings on record: for increases in mitosox red fluorescence within dopaminergic SN neurons: dox-induced transgenics, co-treatment, FIG. 6; for Mean pixel intensity per cell / Total pixel fluorescence per cell: superoxide (mitosox red) in SN dopaminergic neurons, dox-induced plus co-treatment. On the procedure: Mitosox Red (Molecular Probes) was used as an indicator to assess presence of superoxide within cellular mitochondria. 10 μg of Mitosox in 200 μl phosphate-buffered saline was injected into the tail vein of dox-induced transgenics versus controls. Animals were sacrificed 90 minutes later, brains rapidly dissected out and post-fixed overnight in 4% paraformaldehyde. Brains were sectioned at 30 μm using a cryostat. Cellular localization and site of Mitosox Red accumulation in the nigrostriatum was identified by immunofluorescence using anti-TH (Chemicon, 1:500), anti-IBA1 (Wako, 1:500) or anti-GFAP (DAKO, 1:500) antibodies visualized with Fluorescein Avidin D. Mitochondrial localization was confirmed by immunoanalysis using an anti-ATP synthase-specific antibody. Fluorescent imaging was done using a Zeiss LSM510 NLO confocal microscope and images procured using LSM software. Quantification of colocalization and fluorescent intensity was determined using the IMARIS software suite (Bitplane AG, Zurich, Switzerland) on selected cells from multiple sections.

A short description of data set [2]: Striatal MPP+ levels by HPLC after MPTP injection. Type of data set: in vivo, mouse. The settings on record: 30 mg/kg MPTP, 90 minutes post injection. The procedure:
(§2) Striatal tissue was harvested from dox versus untreated animals 90 minutes following injection of 30 mg/kg MPTP intraperitoneally, immediately immersed in ice cold 0.1 M perchloric acid and sonicated. MPP^+ was measured by HPLC as previously described. Dopamine levels were analyzed in striata dissected two weeks of induction or 24 hrs following MPTP injection post induction by HPLC followed by a 464 pulsed electrochemical detection (Neurochemistry Core, Center for Molecular Neuroscience, Vanderbilt University). Stereological cell counts were performed on immunostained brain sections from brains harvested two weeks after induction using either antibody against tyrosine hydroxylase (TH, Chemicon, 1:500) followed by biotin-labeled secondary antibody and development using DAB (Vector Laboratories). TH^+ cells were counted stereologically throughout the SNpc. Counts for dox removal were performed on brains dissected after removal of dox from the feed for a three week period. Sections were cut at a 40 μm thickness, and every 4th section was counted using a grid of 100×100 μm. Dissector size used was 35×35×12 μm. Neuronal numbers were assessed following NeuN^+ (Chemicon, 1:100) or GABA^+ (Chemicon, 1:1000) immunostaining and astrocytes via GFAP^+ (DAKO, 1:500) and s100-â (DAKO, 1:200) immunostaining. Cells were counted in the SN, striata, and cortex in three independent sections per condition and ten fields per section. […] Dopaminochrome was measured from striatal samples by HPLC as per Ochs et al.
To validate that our transgenic model expresses functionally active MAO-B, we assessed its vulnerability to acute systemic MPTP administration. […] Induced and uninduced transgenic mice and wildtype C57B16 littermates were treated with 30 mg/kg MPTP and striatal MPP levels measured via HPLC (Table 1). […]

Data set [3] deals with tyrosine hydroxylase positive (TH+) cells in mesencephalic cultures. Nature of the data set: TH+ dopaminergic cell counts and morphology in dox-induced mesencephalic cultures. It counts as cell-based, mouse. The settings on record: 40 μg/ml dox, twelve hours; deprenyl co-treatment (10 μM); FIG. 2A.
The subject of another data set is astroglia. The data set is described as follows: Astrocyte activation by GFAP immunostaining in induced transgenic mice. It counts as in vivo, mouse. As to conditions: dox-treated transgenic mice, deprenyl co-treatment. On the procedure: as §2, with “Stereological cell counts were performed on immunostained brain sections from brains harvested two weeks after induction using either antibody against tyrosine hydroxylase (TH, Chemicon, 1:500) followed by biotin-labeled secondary antibody and development using DAB (Vector Laboratories).” left out, “Counts for dox removal were performed on brains dissected after removal of dox from the feed for a three week period.” left out, “Dissector size used was 35×35×12 μm.” left out
Immunochemistry was performed on cryosections derived from the SN, striata, and CTX of fixed perfused brains from dox-induced transgenics versus controls. Astrocytic activation was assessed using primary antibodies against GFAP and s100-β. […]

A further data set concerns microglia. The data set is described as follows: Microglial activation (Iba1 immunochemistry) in the SN. It counts as in vivo, mouse. As to conditions: SN of dox-induced transgenics; FIG. 7B. The procedure: Immunochemistry was performed on cryosections derived from the SN, striata, and CTX of fixed perfused brains from dox-induced transgenics versus controls. Astrocytic activation was assessed using primary antibodies against GFAP and s100-β. Microglial activation was detected using primary antibodies against […] Horse radish peroxidase or avidin-conjugated secondary antibodies were used to detect primary antibodies following either DAB or Fluorescein/Texas Red staining.

Data set [4] is described as follows: Locomotor behavioral assessment (open field, Truscan). It counts as in vivo, mouse. As to conditions: induced mice, dox two weeks, deprenyl-treated. On the procedure: Locomotor function was assessed using an automated Truscan photobeam apparatus (Colbourne Instruments, Allentown, Pa.) under illumination as previously described. Animals were habituated to the apparatus for 10 min then data collected over a 10-min period followed by analysis using Truscan 99 software. Spontaneous horizontal movement was assessed in both control and dox treated versus untreated transgenic mice via both ambulatory velocity and distance in a 10-min period.

Data set [5] relates to Parkinson's disease (PD) patients. As to conditions: cited from earlier work; for mortality rate: clinical PD, given after symptoms were present.

Like-named read-outs stand apart in the source and are kept apart here.

With `CC(=O)O.CCOc1cccc(C=NCCN=Cc2cccc(OCC)c2[O-])c1[O-].[Mn]` [EUK-189], the “increase in extracellular H2O2” value with mesencephalic cultures is on record as “prevented the increase”. Moreover, the “dopaminergic SN cell loss” value in the data set on dopaminergic SN neurons was “attenuated”. Further, the “elevation of H2O2 levels in ST dopaminergic synaptosomes” value in data set [1] is “preventable”. Also, the “loss of CI activity in dopaminergic synaptosomes” value with mitochondrial complex I is reported as “attenuated”. In addition, in the data set on SN dopaminergic neurons, the “increases in mitosox red fluorescence within dopaminergic SN neurons” value is given as “prevented”, the “Mean pixel intensity per cell” value is listed as 15.4 ± 4.0 and the “Total pixel fluorescence per cell” value was 126,757 ± 23,798.
Regarding `C[n+]1ccc(-c2ccccc2)cc1` [MPP+], the “Striatal MPP+ levels” value in data set [2] (Dox (induced transgenic mice)) is given as 182 ± 3.4 ng/mg protein; in data set [2] (No Dox (uninduced transgenic mice)), 118 ± 2.3 ng/mg protein; in [2] (WT (wildtype C57Bl6 littermates)), 100 ± 3.5 ng/mg protein.
Consider `COc1cc(C(C)=O)ccc1O` [apocynin], for which the “increase in extracellular H2O2” value in the data set on mesencephalic cultures is reported as “partial reduction”.
As to `C#CCN(C)[C@H](C)Cc1ccccc1` [deprenyl], the “loss in the number of TH+ cells” value in data set [3] is “attenuated”. Moreover, the “increase in extracellular H2O2” value in the data set on mesencephalic cultures is listed as “prevented the increase”. Also, the “astroglial branching (activation) and increased astroglial brain numbers, GFAP” value in the data set on astroglia was “inhibited”. In addition, the “elevation of H2O2 levels in ST dopaminergic synaptosomes” value in [1] is listed as “preventable”. For the same molecule, in the data set with mitochondrial complex I, the “loss of CI activity in dopaminergic synaptosomes” value was “attenuated”. In addition, in the data set with SN dopaminergic neurons, the “increases in mitosox red fluorescence within dopaminergic SN neurons” value is “prevented”, the “Mean pixel intensity per cell” value amounted to 10.2 ± 2.1 and the “Total pixel fluorescence per cell” value is 91,937 ± 19,107. The microglial activation entry with microglia is on record as “prevented”. The locomotor activity entry in data set [4] was “completely unaffected”. In [5], the mortality rate result was “ineffective”. The mortality rate result in data set [5] (listed as selegiline) was “no effect”. In addition, the “requirement of L-DOPA supplementation” value in data set [5] (early stages of symptomatic PD) was “delayed and reduced”.
With Catalase, the “DCF fluorescence of dopaminergic synaptosomes from induced animals” value in data set [1] (synaptosomes treated with 1 mg/ml catalase for 30 min after preparation) was “reduced the fluorescence to below uninduced levels”.
